According to patent US20220054541A1, “METHOD FOR TREATING INFLAMMATORY BOWEL DISEASES” (NovMetaPharma Co., Ltd., priority 2020, published 2022):
“Also recorded” adds a separate entry of the source.

Columns and labels:
[1] = system: muscle tissues and intestinal segments; settings: cited from earlier work
[2] = system: DSS-induced colitis model mice; experiment: DSS-induced colitis model mice (body weight, disease score, survival, colon length, histology); format: in vivo, Male C57BL/6J Jms Slc mice
Experimental: Male C57BL/6J Jms Slc mice (8-week old) were fed with 4% dextran sulfate sodium (DSS) in water in place of drinking water for 9 days, followed by feeding drinking water for 3 days, inducing colitis in the mice. Mice were divided into three groups: (1) CRP40 group administered orally with CHP monohydrate (40 mg/kg body weight/day); (2) CycloZ40 group administered orally with a combination of CHP monohydrate 40 mg/kg+Zn gluconate 70 mg/kg; and (3) vehicle (control) group fed with drinking water. CHP hydrate and combination of CHP hydrate+Zn gluconate were administered to the animals starting from 3 days prior to the DSS administration and continued for 12 days until the animals were sacrificed. The above amount of the CHP monohydrate and the combination of CHP monohydrate and Zn gluconate were administered daily.
At day 12, the animals were sacrificed and their colon lengths were measured.
The intestinal tissues were fixed, paraffin-embedded, and stained with hematoxylin and eosin.
Histopathological evaluation of colon was scored according to the grading system listed below.

[3] = pKa of CHP hydrate material; format: physicochemical

Compound | zinc absorption and uptake [1] | protection of intestine ([2]; CHP alone 40 mg/kg/day as monohydrate compared with combination of CHP 40 mg/kg/day and Zn 70 mg/kg as zinc gluconate) | pKa [3] | histological scores ([2]; DSS-induced colitis mice, compared with control (vehicle) group) | histological examination of intestinal tissue (H&E) ([2]; DSS-induced colitis mice, epithelial lining, submucosa thickness, lymphatic infiltration, compared with vehicle group) | survival rate ([2]; DSS-induced colitis mice, experimental period of 14 days, CHP monohydrate 40 mg/kg/day, or plus Zn gluconate 70 mg/kg, about 70% of vehicle group died) | weight loss (body weight changes) ([2]; DSS-induced colitis mice, oral daily CHP monohydrate 40 mg/kg/day, day 12, compared with CycloZ40 and vehicle groups) | disease score (disease activity: weight loss, stool consistency, blood) ([2]; DSS-induced colitis mice, oral daily CHP monohydrate 40 mg/kg/day, day 12, compared with CycloZ40 and vehicle groups, monohydrate) | colon length ([2]; DSS-induced colitis mice, sacrificed at day 12, compared with vehicle and CycloZ40 groups)
O=C1N[C@@H](Cc2cnc[nH]2)C(=O)N2CCC[C@@H]12 [CHP, Cyclo(-His-Pro)] | enhanced zinc absorption and uptake | greater protection of intestine |  |  |  |  |  |  | 
O=C1N[C@@H](Cc2cnc[nH]2)C(=O)N2CCC[C@@H]12 [CRP40, CHP monohydrate] |  |  | ~6.4 | histologically more resistant to intestinal inflammation | protected from intestinal tissue damage | survived until the end of the experiment | the least | greatly improved; also recorded: the lowest | longest
